Data: patent US20260053932A1, “COMPOUNDS AND METHODS FOR THE TARGETED DEGRADATION OF ANDROGEN RECEPTOR AND ASSOCIATED METHODS OF USE” (Arvinas Operations, Inc., priority 2020, published 2026)

Test system: androgen receptor (AR) in LNCaP and/or VCaP cells
Assay: Androgen Receptor ELISA assay (AR degradation)
Format: cell-based
Settings: degradation of AR ELISA in LNCaP and/or VCaP cells; Table 2C; read-out: DC50 Code*
Method in brief: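 VCaP cells grown ≥3 days, then treated 5 h with compound in media containing 1 nM R1881 (10× stock). Cells lysed and AR quantified by sandwich ELISA (mouse AR detection Ab, HRP anti-mouse, TMB). DC50 and Dmax derived from AR degradation.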

Structure (SMILES)	DC50 [nM]
COc1cc(O[C@H]2C(C)(C)[C@H](NC(=O)c3cnc(N4CCC(CN(CCN5CCOCC5)[C@H]5C[C@H](Oc6ccc7c(c6)C(=O)N(C6CCC(=O)NC6=O)C7=O)C5)CC4)cn3)C2(C)C)ccc1C#N (stereo partly drawn) [compound 209, N-((1r,3r)-3-(4-cyano-3-methoxyphenoxy)-2,2,4,4-tetramethylcyclobutyl)-5-(4-((((1r,3r)-3-((2-(2,6-dioxopiperidin-3-yl)-1,3-dioxoisoindolin-5-yl)oxy)cyclobutyl)(2-morpholinoethyl)amino)methyl)piperidin-1-yl)pyrazine-2-carboxamide]	< 1
COc1cc(O[C@H]2C[C@H](N(CCN3CCOCC3)CC3CCN(c4cnc(C(=O)N[C@H]5C(C)(C)[C@H](Oc6cc(C)c(C#N)c(C)c6)C5(C)C)cn4)CC3)C2)cc2c1C(=O)N(C1CCC(=O)NC1=O)C2=O (stereo partly drawn) [compound 210, N-((1r,3r)-3-(4-cyano-3,5-dimethylphenoxy)-2,2,4,4-tetramethylcyclobutyl)-5-(4-((((1r,3r)-3-((2-(2,6-dioxopiperidin-3-yl)-7-methoxy-1,3-dioxoisoindolin-5-yl)oxy)cyclobutyl)(2-morpholinoethyl)amino)methyl)piperidin-1-yl)pyrazine-2-carboxamide]	< 1
Cc1cc(O[C@H]2C(C)(C)[C@H](NC(=O)c3ccc(N4CCC(CN5CCOC[C@@H]5COc5ccc6c(c5)C(=O)N(C5CCC(=O)NC5=O)C6=O)CC4)cc3)C2(C)C)cc(C)c1C#N (stereo partly drawn) [compound 213, N-((1r,3R)-3-(4-cyano-3,5-dimethylphenoxy)-2,2,4,4-tetramethylcyclobutyl)-4-(4-(((3R)-3-(((2-(2,6-dioxopiperidin-3-yl)-1,3-dioxoisoindolin-5-yl)oxy)methyl)morpholino)methyl)piperidin-1-yl)benzamide]	< 1
CC1(C)[C@H](NC(=O)c2ccc(N3CCC(CN(CCN4CCOCC4)[C@H]4C[C@H](Oc5ccc6c(c5)C(=O)N(C5CCC(=O)NC5=O)C6=O)C4)CC3)cc2)C(C)(C)[C@H]1Oc1ccc(C#N)c(C#N)c1 (stereo partly drawn) [compound 214, N-((1r,3r)-3-(3,4-dicyanophenoxy)-2,2,4,4-tetramethylcyclobutyl)-4-(4-((((1r,3r)-3-((2-(2,6-dioxopiperidin-3-yl)-1,3-dioxoisoindolin-5-yl)oxy)cyclobutyl)(2-morpholinoethyl)amino)methyl)piperidin-1-yl)benzamide]	< 1
COc1cc(OCCN2CCOC3(CCN(c4ccc(C(=O)N[C@H]5C(C)(C)[C@H](Oc6cc(C)c(C#N)c(C)c6)C5(C)C)cc4)CC3)C2)cc2c1C(=O)N(C1CCC(=O)NC1=O)C2=O (stereo partly drawn) [compound 215, N-((1r,3r)-3-(4-cyano-3,5-dimethylphenoxy)-2,2,4,4-tetramethylcyclobutyl)-4-(4-(2-((2-(2,6-dioxopiperidin-3-yl)-7-methoxy-1,3-dioxoisoindolin-5-yl)oxy)ethyl)-1-oxa-4,9-diazaspiro[5.5]undecan-9-yl)benzamide]	< 1
CCOc1cc(O[C@H]2C(C)(C)[C@H](NC(=O)c3ccc(N4CC(CN(C(C)C)[C@H]5C[C@H](Oc6ccc7c(c6)C(=O)N(C6CCC(=O)NC6=O)C7=O)C5)C4)cc3)C2(C)C)ccc1C#N (stereo partly drawn) [compound 217, N-((1r,3r)-3-(4-cyano-3-ethoxyphenoxy)-2,2,4,4-tetramethylcyclobutyl)-4-(3-((((1r,3r)-3-((2-(2,6-dioxopiperidin-3-yl)-1,3-dioxoisoindolin-5-yl)oxy)cyclobutyl) (isopropyl)amino)methyl)azetidin-1-yl)benzamide]	< 1
CC1(C)[C@H](NC(=O)c2ccc(N3CCC(CN(CCN4CCOCC4)[C@H]4C[C@H](Oc5ccc6c(c5)C(=O)N(C5CCC(=O)NC5=O)C6=O)C4)CC3)cc2)C(C)(C)[C@H]1Oc1ccc(C#N)c(Cl)c1 (stereo partly drawn) [compound 219, N-((1r,3r)-3-(3-chloro-4-cyanophenoxy)-2,2,4,4-tetramethylcyclobutyl)-4-(4-((((1r,3r)-3-((2-(2,6-dioxopiperidin-3-yl)-1,3-dioxoisoindolin-5-yl)oxy)cyclobutyl)(2-morpholinoethyl)amino)methyl)piperidin-1-yl)benzamide]	< 1
Cc1cc(O[C@H]2C(C)(C)[C@H](NC(=O)c3ccc(N4CCC(CN5CCOC[C@H]5COc5ccc6c(c5)C(=O)N(C5CCC(=O)NC5=O)C6=O)CC4)cc3)C2(C)C)cc(C)c1C#N (stereo partly drawn) [compound 221, N-((1r,3S)-3-(4-cyano-3,5-dimethylphenoxy)-2,2,4,4-tetramethylcyclobutyl)-4-(4-(((3S)-3-(((2-(2,6-dioxopiperidin-3-yl)-1,3-dioxoisoindolin-5-yl)oxy)methyl)morpholino)methyl)piperidin-1-yl)benzamide]	< 1
Cc1cc(O[C@H]2C(C)(C)[C@H](NC(=O)c3cnc(N4CCC(CN(CCN5CCOCC5)[C@H]5C[C@H](Oc6ccc7c(c6)C(=O)N(C6CCC(=O)NC6=O)C7=O)C5)CC4)cn3)C2(C)C)cc(C)c1C#N (stereo partly drawn) [compound 230, N-((1r,3r)-3-(4-cyano-3,5-dimethylphenoxy)-2,2,4,4-tetramethylcyclobutyl)-5-(4-((((1r,3r)-3-((2-(2,6-dioxopiperidin-3-yl)-1,3-dioxoisoindolin-5-yl)oxy)cyclobutyl)(2-morpholinoethyl)amino)methyl)piperidin-1-yl)pyrazine-2-carboxamide]	< 1
COc1cc(O[C@H]2C[C@H](N(CC3(F)CCN(c4ncc(C(=O)N[C@H]5C(C)(C)[C@H](Oc6cc(C)c(C#N)c(C)c6)C5(C)C)cn4)CC3)C(C)C)C2)cc2c1C(=O)N(C1CCC(=O)NC1=O)C2=O (stereo partly drawn) [compound 231, N-((1r,3r)-3-(4-cyano-3,5-dimethylphenoxy)-2,2,4,4-tetramethylcyclobutyl)-2-(4-((((1r,3r)-3-((2-(2,6-dioxopiperidin-3-yl)-7-methoxy-1,3-dioxoisoindolin-5-yl)oxy)cyclobutyl) (isopropyl)amino)methyl)-4-fluoropiperidin-1-yl)pyrimidine-5-carboxamide]	< 1
CC1(C)[C@H](NC(=O)c2cnc(N3CCC(CN(CCN4CCOCC4)[C@H]4C[C@H](Oc5ccc6c(c5)C(=O)N(C5CCC(=O)NC5=O)C6=O)C4)CC3)cn2)C(C)(C)[C@H]1Oc1ccc(C#N)c(C#N)c1 (stereo partly drawn) [compound 233, N-((1r,3r)-3-(3,4-dicyanophenoxy)-2,2,4,4-tetramethylcyclobutyl)-5-(4-((((1r,3r)-3-((2-(2,6-dioxopiperidin-3-yl)-1,3-dioxoisoindolin-5-yl)oxy)cyclobutyl)(2-morpholinoethyl)amino)methyl)piperidin-1-yl)pyrazine-2-carboxamide]	< 1
CC1(C)[C@H](NC(=O)c2ccc(N3CCC(CN4CCN(c5ccc6c(c5)C(=O)N([C@@]5(C#N)CCC(=O)NC5=O)C6)CC4)CC3)cc2)C(C)(C)[C@H]1Oc1ccc(C#N)c(Cl)c1 [compound 234, N-((1r,3r)-3-(3-chloro-4-cyanophenoxy)-2,2,4,4-tetramethylcyclobutyl)-4-(4-((4-(2-((R)-3-cyano-2,6-dioxopiperidin-3-yl)-3-oxoisoindolin-5-yl)piperazin-1-yl)methyl)piperidin-1-yl)benzamide]	< 1
